{"source": "patent US9550763B2", "about": "“Heterocyclic ring and carbocyclic derivative” (Shionogi & Co., Ltd., priority 2012, dated 2017)"}
{"target": "human P2X3 receptor (Homo sapiens (Human), UniProt P56373)", "sequence (P56373 whole entry)": "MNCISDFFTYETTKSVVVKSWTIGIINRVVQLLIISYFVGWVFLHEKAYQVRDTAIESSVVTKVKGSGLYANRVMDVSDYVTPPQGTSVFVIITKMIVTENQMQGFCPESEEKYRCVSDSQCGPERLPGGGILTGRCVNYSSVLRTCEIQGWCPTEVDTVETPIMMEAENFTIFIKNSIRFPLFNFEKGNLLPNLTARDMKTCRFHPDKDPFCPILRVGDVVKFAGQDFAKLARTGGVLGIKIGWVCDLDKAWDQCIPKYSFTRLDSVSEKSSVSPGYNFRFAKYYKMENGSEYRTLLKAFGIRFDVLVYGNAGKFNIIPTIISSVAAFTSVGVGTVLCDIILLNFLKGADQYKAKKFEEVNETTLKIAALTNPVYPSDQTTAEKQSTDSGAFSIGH", "test": "Evaluation of human P2X3 receptor inhibitory activity (Test Example 1-1, FDSS 3000, 96-well, 50 nM ATP)", "assay_type": "cell-based", "conditions": "human P2X3 receptor in C6BU-1 cells; Test Example 1-1 (compounds I-001 to I-300)", "procedure": "Stably expressing cell line (C6BU-1 cell transfected with human P2X3 receptor gene (GenBank accession number Y07683) was used. The cells were seeded in a 96-well microtiter plate at a concentration of 8000 cells/well and cultured in the medium (7.0% fetal bovine serum, 7.0% horse serum, 1% antibiotic and antifungal in DMEM) for one day at 37° C. under 5% carbon dioxide atmosphere. The medium was replaced with 4 μM Fluo-3-AM solution (20 mM HEPES, 137 mM NaCl, 5.27 mM KCl, 0.9 mM MgCl2, 1.26 mM CaCl2, 5.6 mM D-glucose, 2.5 mM probenecid, 1% BSA, and 0.08% Pluronic F-127, pH 7.5) and incubated at 37° C. under 5% dioxide carbon atmosphere for one hour. The plate was washed with washing buffer (20 mM HEPES, 137 mM NaCl, 5.27 mM KCl, 0.9 mM MgCl2, 1.26 mM CaCl2, 5.6 mM D-glucose, 2.5 mM probenecid, pH7.5), and each well was added with 40 μL of this buffer. The plate was placed in High-Throughput Screening System. FDSS 3000 (Hamamatsu Photonics K.K.). Measurement of fluorescence intensity by FDSS 3000 was started, and 40 μL of DMSO solutions containing different concentrations of the test compound as prepared by dilution with dilution buffer (20 mM HEPES, 137 mM NaCl, 5.27 mM KCl, 0.9 mM MgCl2, 1.26 mM CaCl2, 5.68 mM D-glucose, 2.5 mM probenecid, 0.1% Pluronic F-127, pH7.5) were dispensed to each well through the built-in automatic dispenser. Five minutes after, 50 nM ATP solution (50 μL) prepared by dilution with the dilution buffer was dispensed through the built-in automatic dispenser, and the measurement of fluorescence intensity was continued for 4 min. For each well, the specific maximum fluorescence intensity was calculated as the ratio of the maximum fluorescence intensity after addition of the ATP solution to the fluorescence intensity at the starting of the measurement. The 50% inhibitory concentration (IC50) was calculated under the assumption that the specific maximum fluorescence intensity without test compound is 0% inhibition and that the specific maximum fluorescence intensity when the dilution buffer was added in place of ATP solution is 100% inhibition, to evaluate the inhibitory activity of the test compound. FDSS software (Hamamatsu Photonics K.K.) was used for calculation of the specific maximum fluorescence intensity. IC50 was calculated using Microsoft Excel (Microsoft Corporation) and XLfit (idbs Ltd.)\nThe data of the compounds I-001 to I-300 are the results by the method mentioned in Test Example 1-1, and the data of the compounds I-301 to I-483 are the results by the method mentioned in Test Example 1-2.", "units": {"IC50": "nM"}}
{"compound": "CCCn1c(=O)cc(Nc2ccc(Oc3cccc(C#N)n3)cc2)n(Cc2ccc(Cl)cc2)c1=O", "note": "[Compound I-164]", "IC50": 10}
{"compound": "Cc1noc(C)c1C(=O)Nc1c[nH]/c(=N\\c2ccc(Oc3ccon3)cc2)n(Cc2ccc(Cl)cc2)c1=O", "note": "[Compound I-256]", "IC50": 14}
{"compound": "CCn1c(=O)cc(Nc2ccc(Oc3ncc(C(N)=O)s3)cc2)n(Cc2ccc(Cl)cc2)c1=O", "note": "[Compound I-039]", "IC50": "< 4"}
{"compound": "O=C(NC1CCOCC1)c1cn(Cc2cccc(F)c2)c(Nc2ccc(Oc3cccc(F)n3)cc2)nc1=O", "note": "[Compound I-283]", "IC50": 226}
{"compound": "CCn1c(=O)cc(Nc2ccc(Oc3cccc(C(N)=O)n3)c(C)c2)n(Cc2ccc(Cl)cc2)c1=O", "note": "[Compound I-027]", "IC50": 4}
{"compound": "CCc1oc2ccc(/N=c3\\[nH]cc(CC(C)=O)c(=O)n3Cc3ccc(Cl)cc3)cc2c1C", "note": "[Compound I-102]", "IC50": 267}
{"compound": "CCn1c(=O)cc(Nc2cnc(Oc3cccc(C(=O)O)c3)cn2)n(Cc2ccc(Cl)cc2)c1=O", "note": "[Compound I-083]", "IC50": 168}
{"compound": "CCCn1c(=O)cc(Nc2ccc(Oc3cccc(C#N)c3)c(C)n2)n(Cc2ccc(Cl)cc2)c1=O", "note": "[Compound I-247]", "IC50": 96}
{"compound": "CCc1oc2ccc(Nc3ncc(NC(=O)C4CCOCC4)c(=O)n3Cc3ccc(Cl)c(Cl)c3)cc2c1C", "note": "[Compound I-079]", "IC50": 58}
{"compound": "O=C(O)c1c[nH]/c(=N\\c2ccc(Oc3ccon3)cc2)n(Cc2ccc(Cl)cc2)c1=O", "note": "[Compound I-099]", "IC50": 534}
{"compound": "CCn1c(=O)cc(Nc2ccc(Oc3cccc(C#N)n3)cc2)n(Cc2ccc(Cl)cc2)c1=O", "note": "[Compound I-009]", "IC50": 5}
{"compound": "CCn1c(=O)cc(Nc2ccc(Oc3cccc(C(=O)O)n3)c(C)c2)n(Cc2ccc(Cl)cc2)c1=O", "note": "[Compound I-028]", "IC50": 1}
{"compound": "Cc1nsc(Oc2ccc(/N=c3\\[nH]cc(NC(=O)C4CCOCC4)c(=O)n3Cc3ccc(Cl)cc3)cc2)n1", "note": "[Compound I-225]", "IC50": 6}
{"compound": "COC(=O)[C@@H](C)Cn1c(=O)cc(Nc2ccc(Oc3ccccc3)cc2)n(Cc2ccc(Cl)cc2)c1=O", "note": "[Compound I-113]", "IC50": 187}
{"compound": "NC(=O)c1ccc(Oc2ccc(Nc3nc(=O)c(C(=O)NC4CCOCC4)cn3Cc3ccc(Cl)cc3)cc2)nc1", "note": "[Compound I-239]", "IC50": 5}
{"compound": "CN(C)C(=O)CNC(=O)c1cn(Cc2ccc(Cl)cc2)c(Nc2ccc(Oc3cccc(F)n3)cc2)nc1=O", "note": "[Compound I-299]", "IC50": 18}
{"compound": "CCC(=O)Nc1c[nH]/c(=N\\c2ccc(Oc3ccnc(C(=O)O)c3)cc2)n(Cc2ccc(Cl)cn2)c1=O", "note": "[Compound I-289]", "IC50": 24}
{"compound": "O=C(Nc1c[nH]/c(=N\\c2ccc(Oc3ccon3)cc2)n(Cc2ccc(Cl)cc2)c1=O)c1cccnc1", "note": "[Compound I-265]", "IC50": 48}
{"compound": "O=C(Nc1c[nH]/c(=N\\c2ccc(Oc3ccon3)cc2)n(Cc2ccc(Cl)cc2)c1=O)C1CCNCC1", "note": "[Compound I-186]", "IC50": 72}
{"compound": "CCOC(=O)c1c[nH]/c(=N\\c2ccc(Oc3ccon3)cc2)n(Cc2ccc(Cl)cc2)c1=O", "note": "[Compound I-096]", "IC50": 64}
{"compound": "CCc1oc2ccc(/N=c3\\[nH]cc(CNC4CCOCC4)c(=O)n3Cc3ccc(Cl)cc3)cc2c1C", "note": "[Compound I-049]", "IC50": 225}
{"compound": "NC(=O)c1c[nH]/c(=N\\c2ccc(Oc3ccc(F)cn3)cc2)n(Cc2ccc(Cl)cc2)c1=O", "note": "[Compound I-142]", "IC50": 26}
{"compound": "O=c1c(NC(=O)[C@H]2C[C@H](O)C2)c[nH]/c(=N\\c2ccc(Oc3ccon3)cc2)n1Cc1ccc(Cl)cc1", "note": "[Compound I-183]", "IC50": 6}
{"compound": "CCn1c(=O)cc(Nc2ccc(Oc3cccc(C#N)c3)c(C)n2)n(Cc2ccc(Cl)cc2)c1=O", "note": "[Compound I-246]", "IC50": 71}
{"compound": "CCCn1c(=O)cc(Nc2ccc(Oc3cccc(C(=O)O)n3)c(C)n2)n(Cc2ccc(Cl)cc2)c1=O", "note": "[Compound I-188]", "IC50": 6}
{"compound": "CCOC(=O)c1cnc(Oc2ccc(Nc3ncc(C(=O)OCC)c(=O)n3Cc3ccc(Cl)cc3)cc2)s1", "note": "[Compound I-056]", "IC50": 13}
{"compound": "Cc1ccc(Oc2ccc(Nc3nc(=O)c(C(=O)NCC(=O)N(C)C)cn3Cc3ccc(Cl)cc3)cc2)nn1", "note": "[Compound I-298]", "IC50": 23}
{"compound": "CCn1c(=O)cc(Nc2ccc(Oc3cccc(C(=O)O)n3)cn2)n(Cc2ccc(Cl)cc2)c1=O", "note": "[Compound I-125]", "IC50": 23}
{"compound": "CCOC(=O)c1c[nH]/c(=N\\c2ccc(Oc3cccc(F)n3)c(C)c2)n(Cc2ccc(Cl)cc2)c1=O", "note": "[Compound I-112]", "IC50": 24}
{"compound": "N#C/N=C(/Nc1c[nH]/c(=N\\c2ccc(Oc3ccon3)cc2)n(Cc2ccc(Cl)cc2)c1=O)Oc1ccccc1", "note": "[Compound I-237]", "IC50": 219}
{"compound": "O=C(NC1CCOCC1)c1cn(Cc2ccc(Cl)cc2)c(Nc2ccc(Oc3ncccc3F)cc2)nc1=O", "note": "[Compound I-155]", "IC50": 17}
{"compound": "O=C(Nc1c[nH]/c(=N\\c2ccc(Oc3ccon3)cc2)n(Cc2ccc(Cl)cc2)c1=O)C1CCOC1", "note": "(stereo not drawn) [Compound I-192]", "IC50": 6}
{"compound": "CCOC(=O)c1cn(Cc2ccc(Cl)cc2)c(Nc2ccc3oc(CC)c(C)c3c2)nc1=O", "note": "[Compound I-015]", "IC50": 160}
{"compound": "N#Cc1cnc(Oc2ccc(/N=c3\\[nH]cc(NC(=O)C4CCOCC4)c(=O)n3Cc3ccc(Cl)cc3)cc2)cn1", "note": "[Compound I-143]", "IC50": 2}
{"compound": "CCc1c[nH]/c(=N\\c2ccc(Oc3ncc(C(=O)O)s3)cc2)n(Cc2ccc(Cl)cc2)c1=O", "note": "[Compound I-087]", "IC50": 29}
{"compound": "Cc1ccc(Oc2ccc(/N=c3\\[nH]cc(C(=O)O)c(=O)n3Cc3ccc(Cl)cc3)cc2)nn1", "note": "[Compound I-179]", "IC50": 359}
{"compound": "CCOC(=O)c1c[nH]/c(=N\\c2ccc(Oc3ccc(F)cn3)c(F)c2)n(Cc2ccc(Cl)cc2)c1=O", "note": "[Compound I-206]", "IC50": 48}
{"compound": "Cc1ccc(Oc2ccc(Nc3ncc(NC(=O)C4CCOCC4)c(=O)n3Cc3ccc(Cl)cc3)cc2)nn1", "note": "[Compound I-137]", "IC50": 1}
{"compound": "CCC(=O)N(C)C1=CN/C(=N\\c2ccc(Oc3cccc(C(=O)O)n3)cc2)N(Cc2ccc(Cl)cc2)C1", "note": "[Compound I-241]", "IC50": 8}
{"compound": "O=C(Nc1cnc(Nc2ccc(Oc3ncccc3F)cc2)n(Cc2ccc(Cl)cc2)c1=O)C1CCOCC1", "note": "[Compound I-132]", "IC50": 2}
{"compound": "CCOC(=O)c1c[nH]/c(=N\\c2ccc(Oc3cccc(F)n3)cc2)n(Cc2ccc(Cl)cc2)c1=O", "note": "[Compound I-018]", "IC50": 13}
{"compound": "CCc1oc2ccc(/N=c3\\[nH]cc(C=NN4CCOCC4)c(=O)n3Cc3ccc(Cl)cc3)cc2c1C", "note": "[Compound I-048]", "IC50": 22}
{"compound": "CCc1c[nH]/c(=N\\c2ccc(Oc3cccc(C(=O)O)n3)cc2)n(Cc2ccc(Cl)cc2)c1=O", "note": "[Compound I-144]", "IC50": 35}
{"compound": "CCc1oc2ccc(/N=c3\\[nH]cc(C=O)c(=O)n3Cc3ccc(Cl)cc3)cc2c1C", "note": "[Compound I-045]", "IC50": 226}
{"compound": "CN(C)C(=O)c1c[nH]/c(=N\\c2ccc(Oc3cccc(C(=O)O)n3)cc2)n(Cc2ccc(Cl)cc2)c1=O", "note": "[Compound I-222]", "IC50": 47}
{"compound": "Cc1cc(Nc2nc(=O)c(C(=O)NC3CCOCC3)cn2Cc2ccc(Cl)cc2)ccc1Oc1ncccc1F", "note": "[Compound I-160]", "IC50": 26}
{"compound": "CCCn1c(=O)cc(Nc2ccc(Oc3cccc(C(=O)O)n3)cn2)n(Cc2ccc(Cl)cc2)c1=O", "note": "[Compound I-172]", "IC50": 16}
{"compound": "CCn1c(=O)cc(Nc2ccc(Oc3cccc(C(=O)O)c3)c(C)n2)n(Cc2ccc(Cl)cc2)c1=O", "note": "[Compound I-258]", "IC50": 27}
{"compound": "CCCn1c(=O)cc(Nc2ccc(Oc3cnc(C#N)nc3)cn2)n(Cc2ccc(Cl)cc2)c1=O", "note": "[Compound I-196]", "IC50": 37}
{"compound": "O=C(Nc1c[nH]/c(=N\\c2ccc(Oc3ccon3)cc2)n(Cc2ccc(Cl)cc2)c1=O)C1CCOC1", "note": "(stereo not drawn) [Compound I-212]", "IC50": 11}
{"compound": "O=C(Nc1c[nH]/c(=N\\c2ccc(Oc3ccon3)cc2)n(Cc2ccc(Cl)cc2)c1=O)c1ccno1", "note": "[Compound I-223]", "IC50": 78}
{"compound": "CC(=O)Nc1cnc(Nc2ccc(Oc3cccc(F)n3)cc2)n(Cc2ccc(Cl)cc2)c1=O", "note": "[Compound I-070]", "IC50": 28}
{"compound": "CCn1c(=O)cc(Nc2ccc(Oc3cccc(C(=O)O)c3)cn2)n(Cc2ccc(Cl)cc2)c1=O", "note": "[Compound I-053]", "IC50": 20}
{"compound": "O=c1c(-c2cccnc2)c[nH]/c(=N\\c2ccc(Oc3ccon3)cc2)n1Cc1ccc(Cl)cc1", "note": "[Compound I-273]", "IC50": 201}
{"compound": "CCC(=O)Nc1c[nH]/c(=N\\c2ccc(Oc3ccnc(C(N)=O)c3)cc2)n(Cc2ccc(Cl)cn2)c1=O", "note": "[Compound I-277]", "IC50": 172}
{"compound": "NC(=O)c1cccc(Oc2ccc(Nc3nc(=O)c(C(=O)NC4CCOCC4)cn3Cc3ccc(Cl)cc3)cc2)n1", "note": "[Compound I-217]", "IC50": 5}
{"compound": "Cc1noc(-c2c[nH]/c(=N\\c3ccc(Oc4ccc(F)cn4)cc3)n(Cc3ccc(Cl)cc3)c2=O)n1", "note": "[Compound I-151]", "IC50": 31}
